Measured values: patent US10653670B2, “Use of indole compounds for fat reduction and skin and soft tissue tightening” (Alevere Medical Corporation, priority 2013, dated 2020)
“Also recorded” adds a separate entry of the source.

Experiments:
[1] = system: skeletal muscle cells; test: LIVE/DEAD calcein/ethidium bromide assay, muscle cell kill rate; format: cell-based, human; conditions: for Muscle, averaged ethidium numbers: kill rate (ethidium), same plate as adipocytes; for Muscle, relative kill rate rated against the adipocyte kill rate: percentage in brackets
Experimental: (§1) The time and concentration dependent effects of drug substance on both cell viability and toxicity were evaluated using a two-color fluorescence assay that measures plasma membrane integrity and intracellular enzyme activity. Live cells are determined by the strong fluorescence of calcein AM upon enzymatic conversion. […] The ratio of ethidium to calcein fluorescence is an excellent measure of the relative amount of live and dead cells.
(§2) Initial screening was performed using a variety of cell viability and cytotoxicity assays, including Presto Blue® (Invitrogen, Grand Island, N.Y.), Alamar Blue® (Invitrogen, Grand Island, N.Y.), Cyto-Tox One® (Promega, Madison, Wis.), and Cell Titer Glo® (Promega, Madison, Wis.). […] An MTT terazolium assay was performed, as well as LDH and ATP based assays. […] The LIVE/DEAD® for mammalian cells assay was used. LIVE/DEAD® for mammalian cells assay is a calcein (live read)/ethidium bromide (dead) multiplex assay.
(§3) A sample of DMSO/PBS was a negative control. A sample of Aqualyx® was a positive control. In the table, 24M is phosphatidylcholine 25 mg/ml plus deoxycholate 12 mg/and 25N is C 50/DC24; these were positive controls. The numbers in the table refer to averaged ethidium numbers. The percentages represent the relative kill rate for each cell type when rated against the adipocyte kill rate for that compound. All tissue types were tested on the same plate against adipocytes in order to standardize results.
(§4) Over seventy compounds of the embodiments were tested for adipocytolysis, then for tissue preference. A consistent assay with multiplex information was a calcein/ethidium bromide assay that assesses cell viability and cell death simultaneously. Cell viability was checked using the Countess device. All plates were inoculated with 100 microliters of the appropriate cell types. A 6 well repeat was used to verify results. Cell types used included cultured human adult derived adipocytes, dermal fibroblasts, skeletal muscle cells, and endothelial cells (Cell Applications, Inc., San Diego, Calif.). Human peripheral nerve cells (Innoprot, Spain) were also used.
(§5) Compounds were formulated using a DMSO/PBS excipient. A 10 mg/ml concentration was used. One hundred microliters of test compound was inserted into 6 wells of 5 cell types, placed in adjacent rows. The plates were incubated for 4 hours. Indicator was added to each well, and plates were read at 45 minutes using a fluorescence spectrophotometer (Molecular Devices, Sunnyvale, Calif.).

[2] = system: endothelial cells; test: LIVE/DEAD calcein/ethidium bromide assay, endothelial cell kill rate; format: cell-based, human; conditions: for Endothelial, averaged ethidium numbers: kill rate (ethidium), same plate as adipocytes; for Endothelial, relative kill rate rated against the adipocyte kill rate: percentage in brackets
Experimental: as §1, §2, §3, §4, §5

[3] = system: dermal fibroblasts; format: cell-based; conditions: for Dermis, averaged ethidium numbers: kill rate (ethidium), same plate as adipocytes; for Dermis, relative kill rate rated against the adipocyte kill rate: percentage in brackets
Experimental: as §1, §2, §3, §4, §5

[4] = system: nerve cells; format: cell-based; conditions: for Nerve, averaged ethidium numbers: kill rate (ethidium), same plate as adipocytes; for Nerve, relative kill rate rated against the adipocyte kill rate: percentage in brackets
Experimental: as §1, §2, §3, §4, §5

[5] = system: adipocytes; test: LIVE/DEAD calcein/ethidium bromide assay, adipocyte kill rate; format: cell-based, human; conditions: for adipocyte kill rate / aggressiveness: Example 2, FIGS. 5-8 and table; for Adipocyte, averaged ethidium numbers: kill rate (ethidium), all tissue types on the same plate
Experimental: as §1, §2, §3, §4, §5

[6] = system: adipocytes over nerve cells, dermal cells, muscle cells, and endothelial cells; test: LIVE/DEAD assay, tissue preference (adipocytes versus other cell types); format: cell-based, human; conditions: for tissue specificity / tissue preference: Example 2, FIGS. 5-8 and table, 2 and 5 hours in FIGS. 6-8
[7] = system: adipocytes; test: Histology of injected immediate ex-vivo abdominoplasty tissue; format: cell-based, human
Experimental: As the indole group has not been previously used for intralesional fat reduction, a method of obtaining histologic specimens had to be modified.
The tissue model described herein, therefore, was immediate ex-vivo abdominoplasty tissue that had been permitted for use by the surgical patient. Segments of abdominal skin and subcutaneous fat were injected with identified test compounds, plus a negative saline control and three positive controls: 1% deoxycholate, the commercial preparation of Aqualyx®, and the Network Lipolysis PC/DC formula.
Because there was no host; inflammatory changes would not be expected. This study was only performed to assess the immediacy of adipocyte changes, and to determine the method of action of each compound.

| SMILES | Muscle, averaged ethidium numbers [1] | Muscle, relative kill rate rated against the adipocyte kill rate [1] [%] | Endothelial, averaged ethidium numbers [2] | Endothelial, relative kill rate rated against the adipocyte kill rate [2] [%] | Dermis, averaged ethidium numbers [3] | Dermis, relative kill rate rated against the adipocyte kill rate [3] [%] | Nerve, averaged ethidium numbers [4] | Nerve, relative kill rate rated against the adipocyte kill rate [4] [%] | adipocyte kill rate / aggressiveness [5] | Adipocyte, averaged ethidium numbers [5] | tissue specificity / tissue preference [6] | histology finding / mechanism of action ([7]; at 12 hours) | toxicity to dermis / dermal fibroblasts ([3]; Example 2, FIGS. 6-8) | toxicity to nerve cells ([4]; Example 2, FIGS. 6-8) | histology finding / mechanism of action ([7]; at 4 hours) | histology finding / mechanism of action ([7]; at 1 hour) | ethidium results for dermis, muscle and endothelial cells compared with adipocytes ([6]; 4 time points over 24 hours) | tissue preference ([6]; Example 5, FIG. 12, 10 mg/ml, 4 hours incubation) |
| --- | --- | --- | --- | --- | --- | --- | --- | --- | --- | --- | --- | --- | --- | --- | --- | --- | --- | --- |
| O=C(O)Cc1c[nH]c2ccc(Br)cc12 [Compound 41, 2-(5-bromo-1H-indol-3-yl) acetic acid] | 40 | 27 | 44 | 30 | 27 | 18 | 32 | 20 | moderate; also recorded: strong adipocytolytic capability | 149 | most strongly tissue preferential; also recorded: high tissue preference index | Pyroptotic mechanism |  |  |  |  |  |  |
| Brc1ccc2[nH]ccc2c1 [Compound 38, 5-bromo-1H-indole] | 362 | 65 | 289 | 50 | 148 | 27 | 551 | 99 | aggressive adipocyte killer | 558 | moderate preference |  | not nearly as toxic | toxic to nerve cells | primarily cytolysis |  |  |  |
| O=Cc1cc2ccccc2[nH]1 [Compound 2, 1H-indole-2-carbaldehyde] | 93 | 26 | 116 | 32 | 101 | 28 | 124 | 39 | aggressive; also recorded: most aggressive | 360 | most strongly tissue preferential; also recorded: high specificity |  |  |  |  | more cytolysis than apoptosis |  |  |
| c1ccc2[nH]ccc2c1 [Compound 33, 1H-indole] | 18 | 56 | 18 | 56 | 17 | 53 | 17 | 53 | fairly low adipocyte kill rate | 32 | moderate tissue specificity |  |  |  | pyroptotic activity |  | less than half toxic | about 50% |
